Assay results: PubChem BioAssay AID1259407 (Chemical Carcinogenesis Research Information System (CCRIS), 2018)
Activity calls are given as the source filed them. No rule for the calls is given here.

Test system: CCRIS mutagenicity, Ames/micronucleus/aberration tests
Assay: CCRIS mutagenicity studies
[1] = Test System: AMES SALMONELLA TYPHIMURIUM, Strain/Indicator: TA98, Metabolic Activation: NONE, Method: PREINCUBATION
[2] = Test System: AMES SALMONELLA TYPHIMURIUM, Strain/Indicator: TA1537, Metabolic Activation: NONE, Method: PREINCUBATION
[3] = Test System: E. COLI, Strain/Indicator: WP2 UVRA, Metabolic Activation: NONE, Method: PREINCUBATION

CC(C)CO
mutagenic call (Test System: AMES SALMONELLA TYPHIMURIUM, Strain/Indicator: TA97, Metabolic Activation: HAMSTER, LIVER, S-9, AROCLOR 1254 (10 OR 30%), Method: PREINCUBATION): inactive; negative
mutagenic call (Test System: AMES SALMONELLA TYPHIMURIUM, Strain/Indicator: TA97, Metabolic Activation: NONE, Method: PREINCUBATION): inactive; negative
mutagenic call (Test System: AMES SALMONELLA TYPHIMURIUM, Strain/Indicator: TA97, Metabolic Activation: RAT, LIVER, S-9, AROCLOR 1254 (10 OR 30%), Method: PREINCUBATION): inactive; negative
mutagenic call (Test System: AMES SALMONELLA TYPHIMURIUM, Strain/Indicator: TA98, Metabolic Activation: HAMSTER, LIVER, S-9, AROCLOR 1254 (10 OR 30%), Method: PREINCUBATION): inactive; negative
mutagenic call [1]: inactive; negative
mutagenic call (Test System: AMES SALMONELLA TYPHIMURIUM, Strain/Indicator: TA98, Metabolic Activation: RAT, LIVER, S-9, AROCLOR 1254 (10 OR 30%), Method: PREINCUBATION): inactive; negative
mutagenic call (Test System: AMES SALMONELLA TYPHIMURIUM, Strain/Indicator: TA98, Metabolic Activation: RAT, LIVER, S-9, KC 500, Method: PREINCUBATION): inactive; negative
mutagenic call (Test System: AMES SALMONELLA TYPHIMURIUM, Strain/Indicator: TA100, Metabolic Activation: HAMSTER, LIVER, S-9, AROCLOR 1254 (10 OR 30%), Method: PREINCUBATION): inactive; negative
mutagenic call (Test System: AMES SALMONELLA TYPHIMURIUM, Strain/Indicator: TA100, Metabolic Activation: NONE, Method: PREINCUBATION): inactive; negative
mutagenic call (Test System: AMES SALMONELLA TYPHIMURIUM, Strain/Indicator: TA100, Metabolic Activation: RAT, LIVER, S-9, AROCLOR 1254 (10 OR 30%), Method: PREINCUBATION): inactive; negative
mutagenic call (Test System: AMES SALMONELLA TYPHIMURIUM, Strain/Indicator: TA100, Metabolic Activation: RAT, LIVER, S-9, KC 500, Method: PREINCUBATION): inactive; negative
mutagenic call (Test System: AMES SALMONELLA TYPHIMURIUM, Strain/Indicator: TA1535, Metabolic Activation: HAMSTER, LIVER, S-9, AROCLOR 1254 (10 OR 30%), Method: PREINCUBATION): inactive; negative
mutagenic call (Test System: AMES SALMONELLA TYPHIMURIUM, Strain/Indicator: TA1535, Metabolic Activation: NONE, Method: PREINCUBATION): inactive; negative
mutagenic call (Test System: AMES SALMONELLA TYPHIMURIUM, Strain/Indicator: TA1535, Metabolic Activation: RAT, LIVER, S-9, AROCLOR 1254 (10 OR 30%), Method: PREINCUBATION): inactive; negative
mutagenic call (Test System: AMES SALMONELLA TYPHIMURIUM, Strain/Indicator: TA1535, Metabolic Activation: RAT, LIVER, S-9, KC 500, Method: PREINCUBATION): inactive; negative
mutagenic call (Test System: AMES SALMONELLA TYPHIMURIUM, Strain/Indicator: TA1537, Metabolic Activation: HAMSTER, LIVER, S-9, AROCLOR 1254 (30%), Method: PREINCUBATION): inactive; negative
mutagenic call [2]: inactive; negative
mutagenic call (Test System: AMES SALMONELLA TYPHIMURIUM, Strain/Indicator: TA1537, Metabolic Activation: RAT, LIVER, S-9, AROCLOR 1254 (30%), Method: PREINCUBATION): inactive; negative
mutagenic call (Test System: AMES SALMONELLA TYPHIMURIUM, Strain/Indicator: TA1537, Metabolic Activation: RAT, LIVER, S-9, KC 500, Method: PREINCUBATION): inactive; negative
mutagenic call (Test System: AMES SALMONELLA TYPHIMURIUM, Strain/Indicator: TA1538, Metabolic Activation: NONE, Method: PREINCUBATION): inactive; negative
mutagenic call (Test System: AMES SALMONELLA TYPHIMURIUM, Strain/Indicator: TA1538, Metabolic Activation: RAT, LIVER, S-9, KC 500, Method: PREINCUBATION): inactive; negative
mutagenic call (Test System: Ames Salmonella typhimurium, Strain/Indicator: TA98, Metabolic Activation: None, Method: Preincubation): inactive; negative
mutagenic call (Test System: Ames Salmonella typhimurium, Strain/Indicator: TA98, Metabolic Activation: Rat, Liver, S-9, Phenobarbital and 5,6-benzoflavone, Method: Preincubation): inactive; negative
mutagenic call (Test System: Ames Salmonella typhimurium, Strain/Indicator: TA100, Metabolic Activation: None, Method: Preincubation): inactive; negative
mutagenic call (Test System: Ames Salmonella typhimurium, Strain/Indicator: TA100, Metabolic Activation: Rat, Liver, S-9, Phenobarbital and 5,6-benzoflavone, Method: Preincubation): inactive; negative
mutagenic call (Test System: Ames Salmonella typhimurium, Strain/Indicator: TA1535, Metabolic Activation: None, Method: Preincubation): inactive; negative
mutagenic call (Test System: Ames Salmonella typhimurium, Strain/Indicator: TA1535, Metabolic Activation: Rat, Liver, S-9, Phenobarbital and 5,6-benzoflavone, Method: Preincubation): inactive; negative
mutagenic call (Test System: Ames Salmonella typhimurium, Strain/Indicator: TA1537, Metabolic Activation: None, Method: Preincubation): inactive; negative
mutagenic call (Test System: Ames Salmonella typhimurium, Strain/Indicator: TA1537, Metabolic Activation: Rat, Liver, S-9, Phenobarbital and 5,6-benzoflavone, Method: Preincubation): inactive; negative
mutagenic call (Test System: CHINESE HAMSTER V-79, Strain/Indicator: V-79 (HPRT)/6-THIOGUANINE, Metabolic Activation: NONE, Method: STANDARD PLATE): inactive; negative
mutagenic call (Test System: CHINESE HAMSTER V-79, Strain/Indicator: V-79 (HPRT)/6-THIOGUANINE, Metabolic Activation: RAT LIVER S-9, Method: STANDARD PLATE): inactive; negative
mutagenic call [3]: inactive; negative
mutagenic call (Test System: E. COLI, Strain/Indicator: WP2 UVRA, Metabolic Activation: RAT, LIVER, S-9, KC 500, Method: PREINCUBATION): inactive; negative
mutagenic call (Test System: E. coli, Strain/Indicator: WP2uvrA/pKM101, Metabolic Activation: None, Method: Preincubation): inactive; negative
mutagenic call (Test System: E. coli, Strain/Indicator: WP2uvrA/pKM101, Metabolic Activation: Rat, Liver, S-9, Phenobarbital and 5,6-benzoflavone, Method: Preincubation): inactive; negative

CNN
mutagenic call (End Point: IN VITRO CHROMOSOMAL ABERRATIONS, Test System: CHL CELLS, Metabolic Activation: RAT, LIVER, S-9, SODIUM PHENOBARBITAL AND 5,6-BENZOFLAVONE): active; positive (structural changes)
mutagenic call [1]: inactive; negative
mutagenic call (Test System: AMES SALMONELLA TYPHIMURIUM, Strain/Indicator: TA98, Metabolic Activation: RAT LIVER S-9, PHENOBARBITAL AND BETA-NAPHTHOFLAVONE, Method: PREINCUBATION): inactive; negative
mutagenic call (Test System: AMES SALMONELLA TYPHIMURIUM, Strain/Indicator: TA100, Metabolic Activation: RAT LIVER S-9, PHENOBARBITAL AND BETA-NAPHTHOFLAVONE, Method: PREINCUBATION): inactive; negative
mutagenic call (Test System: AMES SALMONELLA TYPHIMURIUM, Strain/Indicator: TA102, Metabolic Activation: NONE, Method: PREINCUBATION): active; positive
mutagenic call (Test System: AMES SALMONELLA TYPHIMURIUM, Strain/Indicator: TA1535, Metabolic Activation: RAT LIVER S-9, PHENOBARBITAL AND BETA-NAPHTHOFLAVONE, Method: PREINCUBATION): active; positive
mutagenic call (Test System: AMES SALMONELLA TYPHIMURIUM, Strain/Indicator: TA1535, Metabolic Activation: RAT, LIVER, S-9, AROCLOR 1254, Method: PREINCUBATION): inactive; negative
mutagenic call [2]: inactive; negative
mutagenic call (Test System: AMES SALMONELLA TYPHIMURIUM, Strain/Indicator: TA1537, Metabolic Activation: RAT LIVER S-9, PHENOBARBITAL AND BETA-NAPHTHOFLAVONE, Method: PREINCUBATION): inactive; negative
mutagenic call (Test System: AMES SALMONELLA TYPHIMURIUM, Strain/Indicator: TA1537, Metabolic Activation: RAT, LIVER, S-9, AROCLOR 1254, Method: PREINCUBATION): inactive; negative
mutagenic call [3]: active; positive
mutagenic call (Test System: E.COLI, Strain/Indicator: WP2UVRA, Metabolic Activation: RAT LIVER S-9, PHENOBARBITAL AND BETA-NAPHTHOFLAVONE, Method: PREINCUBATION): active; positive
